Laboratory results from PubChem BioAssay AID1919005 (Molecular Pharmacology Branch, DTP, NCI, 2023).
pIC50: −log10 of the molar value. Each block holds one molecule with its values, some of them ahead of it.

System: 855422-203-R-J1-PDC complex spheroid growth
Assay: Anticancer human tumor 855422-203-R-J1-PDC patient-derived bladder carcinoma cell line growth inhibition [AhR]
Conditions: for pIC50: curve of first compound; for viability, T/C: stronger effect = lower value
Method in brief: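 Complex tumor spheroids co-cultured with HUVEC and human MSC stroma; AhR antagonists tested in combination with standard-of-care and investigational agents. Top concentration at or near clinical Cmax (else 10 microM), half-log dilutions; growth expressed as percent test/control.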

[1] = second compound 0.1 µM, first compound 0.0316 µM
[2] = second compound 0.1 µM, first compound 0.1 µM
[3] = second compound 0.316 µM, first compound 0.0316 µM
[4] = second compound 0.316 µM, first compound 0.1 µM
[5] = second compound 1 µM, first compound 0.0316 µM
[6] = second compound 1 µM, first compound 0.1 µM
[7] = second compound 3.16 µM, first compound 0.0316 µM
[8] = second compound 3.16 µM, first compound 0.1 µM
[9] = second compound 10 µM, first compound 0.0316 µM
[10] = second compound 10 µM, first compound 0.1 µM
[11] = second compound 0.1 µM, first compound 0.316 µM
[12] = second compound 0.1 µM, first compound 1 µM
[13] = second compound 0.1 µM, first compound 3.16 µM
[14] = second compound 0.1 µM, first compound 10 µM
[15] = second compound 0.316 µM, first compound 0.316 µM
[16] = second compound 0.316 µM, first compound 1 µM
[17] = second compound 0.316 µM, first compound 3.16 µM
[18] = second compound 0.316 µM, first compound 10 µM
[19] = second compound 1 µM, first compound 0.316 µM
[20] = second compound 1 µM, first compound 1 µM
[21] = second compound 1 µM, first compound 3.16 µM
[22] = second compound 1 µM, first compound 10 µM
[23] = second compound 3.16 µM, first compound 0.316 µM
[24] = second compound 3.16 µM, first compound 1 µM
[25] = second compound 3.16 µM, first compound 3.16 µM
[26] = second compound 3.16 µM, first compound 10 µM
[27] = second compound 10 µM, first compound 0.316 µM
[28] = second compound 10 µM, first compound 1 µM
[29] = second compound 10 µM, first compound 3.16 µM
[30] = second compound 10 µM, first compound 10 µM
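Also: spheroids exposed to agents for seven days before readout.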
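For viability, T/C in this document: percent of DMSO vehicle control luminescence viability.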

pIC50 (second compound 0.1 µM): 7.06
pIC50 (second compound 0.316 µM): 7.19
pIC50 (second compound 1 µM): 7.21
pIC50 (second compound 3.16 µM): 7.50
pIC50 (second compound 10 µM): 7.52
SMILES: CC[C@@]1(O)C(=O)OCc2c1cc1n(c2=O)Cc2cc3c(CN(C)C)c(O)ccc3nc2-1 + Cc1ccccc1N=Nc1ccc(NC(=O)c2ccnn2C)c(C)c1
viability, T/C (second compound 0.1 µM, first compound 0.000316 µM): 104%
viability, T/C (second compound 0.1 µM, first compound 0.001 µM): 103%
viability, T/C (second compound 0.1 µM, first compound 0.00316 µM): 106%
viability, T/C (second compound 0.1 µM, first compound 0.01 µM): 97.9%
viability, T/C [1]: 90.4%
viability, T/C [2]: 43.7%
viability, T/C (second compound 0.316 µM, first compound 0.000316 µM): 96.7%
viability, T/C (second compound 0.316 µM, first compound 0.001 µM): 101%
viability, T/C (second compound 0.316 µM, first compound 0.00316 µM): 94.1%
viability, T/C (second compound 0.316 µM, first compound 0.01 µM): 97.2%
viability, T/C [3]: 77.8%
viability, T/C [4]: 33.5%
viability, T/C (second compound 1 µM, first compound 0.000316 µM): 110%
viability, T/C (second compound 1 µM, first compound 0.001 µM): 98.3%
viability, T/C (second compound 1 µM, first compound 0.00316 µM): 95.2%
viability, T/C (second compound 1 µM, first compound 0.01 µM): 98.7%
viability, T/C [5]: 74.7%
viability, T/C [6]: 31.9%
viability, T/C (second compound 3.16 µM, first compound 0.000316 µM): 97.4%
viability, T/C (second compound 3.16 µM, first compound 0.001 µM): 96.4%
viability, T/C (second compound 3.16 µM, first compound 0.00316 µM): 89.3%
viability, T/C (second compound 3.16 µM, first compound 0.01 µM): 87.1%
viability, T/C [7]: 49.9%
viability, T/C [8]: 30.8%
viability, T/C (second compound 10 µM, first compound 0.000316 µM): 88.1%
viability, T/C (second compound 10 µM, first compound 0.001 µM): 81.7%
viability, T/C (second compound 10 µM, first compound 0.00316 µM): 87.6%
viability, T/C (second compound 10 µM, first compound 0.01 µM): 86.9%
viability, T/C [9]: 48.7%
viability, T/C [10]: 29.7%

pIC50 (second compound 0.1 µM): 7.74
pIC50 (second compound 0.316 µM): 7.81
pIC50 (second compound 1 µM): 7.94
pIC50 (second compound 3.16 µM): 8.15
pIC50 (second compound 10 µM): 8.27
SMILES: CCc1c2c(nc3ccc(O)cc13)-c1cc3c(c(=O)n1C2)COC(=O)[C@]3(O)CC + Cc1ccccc1N=Nc1ccc(NC(=O)c2ccnn2C)c(C)c1
viability, T/C (second compound 0.1 µM, first compound 0.000949 µM): 107%
viability, T/C (second compound 0.1 µM, first compound 0.003 µM): 98.3%
viability, T/C (second compound 0.1 µM, first compound 0.00949 µM): 75.5%
viability, T/C (second compound 0.1 µM, first compound 0.03 µM): 29.6%
viability, T/C (second compound 0.1 µM, first compound 0.0949 µM): 17.4%
viability, T/C (second compound 0.1 µM, first compound 0.3 µM): 11.5%
viability, T/C (second compound 0.316 µM, first compound 0.000949 µM): 98.3%
viability, T/C (second compound 0.316 µM, first compound 0.003 µM): 93.7%
viability, T/C (second compound 0.316 µM, first compound 0.00949 µM): 68.1%
viability, T/C (second compound 0.316 µM, first compound 0.03 µM): 25.2%
viability, T/C (second compound 0.316 µM, first compound 0.0949 µM): 14.6%
viability, T/C (second compound 0.316 µM, first compound 0.3 µM): 9.09%
viability, T/C (second compound 1 µM, first compound 0.000949 µM): 102%
viability, T/C (second compound 1 µM, first compound 0.003 µM): 95.3%
viability, T/C (second compound 1 µM, first compound 0.00949 µM): 55.5%
viability, T/C (second compound 1 µM, first compound 0.03 µM): 20.7%
viability, T/C (second compound 1 µM, first compound 0.0949 µM): 14%
viability, T/C (second compound 1 µM, first compound 0.3 µM): 9.24%
viability, T/C (second compound 3.16 µM, first compound 0.000949 µM): 92.3%
viability, T/C (second compound 3.16 µM, first compound 0.003 µM): 81.8%
viability, T/C (second compound 3.16 µM, first compound 0.00949 µM): 36.8%
viability, T/C (second compound 3.16 µM, first compound 0.03 µM): 21.7%
viability, T/C (second compound 3.16 µM, first compound 0.0949 µM): 13%
viability, T/C (second compound 3.16 µM, first compound 0.3 µM): 7.68%
viability, T/C (second compound 10 µM, first compound 0.000949 µM): 76.5%
viability, T/C (second compound 10 µM, first compound 0.003 µM): 73.4%
viability, T/C (second compound 10 µM, first compound 0.00949 µM): 28.1%
viability, T/C (second compound 10 µM, first compound 0.03 µM): 22%
viability, T/C (second compound 10 µM, first compound 0.0949 µM): 13.7%
viability, T/C (second compound 10 µM, first compound 0.3 µM): 9.18%

pIC50 (second compound 0.1 µM): 5.20
pIC50 (second compound 0.316 µM): 5.20
pIC50 (second compound 1 µM): 5.16
pIC50 (second compound 3.16 µM): 5.22
pIC50 (second compound 10 µM): 5.37
SMILES: Nc1ccccc1NC(=O)c1ccc(CNC(=O)OCc2cccnc2)cc1 + Cc1ccccc1N=Nc1ccc(NC(=O)c2ccnn2C)c(C)c1
viability, T/C [1]: 101%
viability, T/C [2]: 106%
viability, T/C [11]: 100%
viability, T/C [12]: 107%
viability, T/C [13]: 78.4%
viability, T/C [14]: 31.1%
viability, T/C [3]: 103%
viability, T/C [4]: 101%
viability, T/C [15]: 104%
viability, T/C [16]: 107%
viability, T/C [17]: 84%
viability, T/C [18]: 26.5%
viability, T/C [5]: 106%
viability, T/C [6]: 105%
viability, T/C [19]: 109%
viability, T/C [20]: 111%
viability, T/C [21]: 91.2%
viability, T/C [22]: 29.8%
viability, T/C [7]: 97.4%
viability, T/C [8]: 92.7%
viability, T/C [23]: 92.1%
viability, T/C [24]: 98%
viability, T/C [25]: 86.2%
viability, T/C [26]: 21.1%
viability, T/C [9]: 85.3%
viability, T/C [10]: 84.3%
viability, T/C [27]: 87.4%
viability, T/C [28]: 86.3%
viability, T/C [29]: 61.6%
viability, T/C [30]: 18.2%

pIC50 (second compound 0.1 µM): 6.58
pIC50 (second compound 0.316 µM): 6.53
pIC50 (second compound 1 µM): 6.61
pIC50 (second compound 3.16 µM): 6.78
pIC50 (second compound 10 µM): 7.14
SMILES: Nc1ccn(C2OC(CO)C(O)C2(F)F)c(=O)n1 (stereo not given) + Cc1ccccc1N=Nc1ccc(NC(=O)c2ccnn2C)c(C)c1
viability, T/C [1]: 120%
viability, T/C [2]: 96.4%
viability, T/C [11]: 40.4%
viability, T/C [12]: 29.2%
viability, T/C [13]: 25.9%
viability, T/C [14]: 16.5%
viability, T/C [3]: 113%
viability, T/C [4]: 89.3%
viability, T/C [15]: 46.5%
viability, T/C [16]: 28.2%
viability, T/C [17]: 23.4%
viability, T/C [18]: 20.7%
viability, T/C [5]: 109%
viability, T/C [6]: 84.5%
viability, T/C [19]: 39.2%
viability, T/C [20]: 30.1%
viability, T/C [21]: 23.8%
viability, T/C [22]: 19.1%
viability, T/C [7]: 84.5%
viability, T/C [8]: 63.3%
viability, T/C [23]: 31.9%
viability, T/C [24]: 29.6%
viability, T/C [25]: 22.3%
viability, T/C [26]: 17.1%
viability, T/C [9]: 64%
viability, T/C [10]: 45.8%
viability, T/C [27]: 29.6%
viability, T/C [28]: 27.7%
viability, T/C [29]: 22.1%
viability, T/C [30]: 18%

pIC50 (second compound 0.1 µM): < 5.00
pIC50 (second compound 0.316 µM): < 5.00
pIC50 (second compound 1 µM): < 5.00
pIC50 (second compound 3.16 µM): < 5.00
pIC50 (second compound 10 µM): < 5.00
SMILES: O=C(c1cc(Cc2n[nH]c(=O)c3ccccc23)ccc1F)N1CCN(C(=O)C2CC2)CC1 + Cc1ccccc1N=Nc1ccc(NC(=O)c2ccnn2C)c(C)c1
viability, T/C [1]: 96.5%
viability, T/C [2]: 102%
viability, T/C [11]: 99.3%
viability, T/C [12]: 95.1%
viability, T/C [13]: 90.9%
viability, T/C [14]: 93.2%
viability, T/C [3]: 102%
viability, T/C [4]: 100%
viability, T/C [15]: 97.8%
viability, T/C [16]: 93.1%
viability, T/C [17]: 94.2%
viability, T/C [18]: 93.1%
viability, T/C [5]: 97.6%
viability, T/C [6]: 102%
viability, T/C [19]: 103%
viability, T/C [20]: 100%
viability, T/C [21]: 101%
viability, T/C [22]: 94.6%
viability, T/C [7]: 90.2%
viability, T/C [8]: 91.7%
viability, T/C [23]: 92.2%
viability, T/C [24]: 94.3%
viability, T/C [25]: 93.3%
viability, T/C [26]: 84.2%
viability, T/C [9]: 80.9%
viability, T/C [10]: 79.3%
viability, T/C [27]: 76.9%
viability, T/C [28]: 79.7%
viability, T/C [29]: 74%
viability, T/C [30]: 63.6%
